# What was measured:
# [1] = tested on: C. elegans; experiment: Efficacy against nematodes (C. elegans motility rating); design: key: 0: no effect; 7: reduced movement in 24 h; 8: dead in 24 h; 9: dead in 4 h; conditions: observations at 4 h and 24 h postimmersion
# Outline: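 Mixed-stage C. elegans (~50 per well, L1 to adult) in M9 buffer exposed to test compound at 100 ppm, 150 ppm or 200 μM final. Motility of larvae and adults scored under dissecting microscope at 4 h and 24 h.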
# [2] = Toxicity in treated gerbils (deaths or significant weight loss); type: in vivo; design: key: +: Toxicity is indicated for those groups having one or more animals expired; conditions: single oral dose of 50 mg/kg
# Protocol: In this evaluation, gerbils are infected with Trichostrongylus columbriformis infective larvae at a concentration of approximately 800 L3/mL. Larvae for gerbil infections are cultured from feces from sheep previously infected with T. colubriformis. One week post infection, test compounds are administered by gavage as a single oral dose of 50 mg/kg of body weight. For each group of 3 gerbils, 10 mg of test compound are dissolved in 2 mL of PEG 400:DMSO (1:2 v/v) and each animal is administered the test solution at a rate of 0.1 mL/10 g of body weight. […] All animals are observed daily for morbidity and mortality. Four days post-treatment, all animals are weighed and necropsied. Worm counts are conducted with the use of stereoscopes and counters.
# [3] = tested on: Trichostrongylus columbriformis; experiment: In vivo efficacy against T. colubriformis in infected gerbils; conditions: gerbils infected with T. colubriformis, single oral dose of 50 mg/kg by gavage, worm counts four days post-treatment, % mortality as compared to negative control
# Outline: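 Gerbils infected with ~800 L3/mL larvae were treated one week later by gavage with a single 50 mg/kg oral dose in PEG 400:DMSO (1:2 v/v), 3 animals per group. Necropsy four days post-treatment, with worms counted under stereoscopes.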
Structure (SMILES),Rating ([1]; dose 100 ppm),Toxicity ([2]; groups of 3),Mortality [3],Rating ([1]; dose 150 ppm),"Toxicity ([2]; groups of 3, 50 mg/kg)",Mortality ([3]; 50 mg/kg)
O=C1OC(=Cc2ccc(C(F)(F)F)cc2)C(O)=C1c1ccc(OC(F)(F)F)cc1 (mixture of isomers) [R=H; R1=4-OCF3—C6H4**; R2=4-CF3—C6H4],9,+,55.50%,–,–,–
O=C1OC(=Cc2ccc(F)cc2)C(O)=C1c1ccc(C(F)(F)F)cc1 (mixture of isomers) [R=H; R1=4-CF3—C6H4**; R2=4-F—C6H4],9,+,95.80%,–,–,–
N#Cc1ccc(C=C2OC(=O)C(c3ccc(OC(F)(F)F)cc3)=C2O)cc1 (mixture of isomers) [R=H; R1=4-OCF3—C6H4**; R2=4-CN—C6H4],9,+,88.90%,–,–,–
"O=C1O/C(=C\c2ccc(-c3ccccc3)cc2)C(O)=C1c1cc(C(F)(F)F)cc(C(F)(F)F)c1 [R=H; R1=3,5-diCF3—C6H3; R2=4-biphenyl]",–,+,60.80%,9,–,–
"O=C1OC(=Cc2ccc(Cl)c(Cl)c2)C(O)=C1c1ccc(OC(F)(F)F)cc1 (mixture of isomers) [R=H; R1=4-OCF3—C6H4**; R2=3,4-diCl—C6H3]",9,+,100.0%,–,–,–
"O=C1O/C(=C\c2ccc(-c3ccccc3)cc2)C(O)=C1c1cc(Cl)cc(Cl)c1 [R=H; R1=3,5-diCl—C6H3; R2=4-biphenyl]",–,+,52.60%,9,–,–
N#Cc1ccc(-c2ccc(/C=C3\OC(=O)C(c4ccc(Cl)cc4)=C3O)cc2)cc1 [R=H; R1=4-Cl—C6H4; R2=4-(4′-CN-biphenyl)],–,–,–,9,+,48.90%
O=C1O/C(=C\c2ccc(Cl)cc2)C(O)=C1c1ccc(Cl)cc1 [R=H; R1=4-Cl—C6H4; R2=4-Cl—C6H4],–,+,79.78%,9,–,–
O=C1OC(=Cc2ccc(F)cc2)C(O)=C1c1ccc(Cl)cc1 (mixture of isomers) [R=H; R1=4-Cl—C6H4**; R2=4-F—C6H4],9,+,72.60%,–,–,–
